# Laboratory results: patent US20050113450A1, “Antibacterial agents” (priority 2002, published 2005)
# System: SA 9218
# Assay: MIC by standard agar dilution method
# Format: cell-based
# Conditions: Mueller Hinton agar, 10^4 to 10^5 cells per spot, incubated overnight at 35° C., lowest concentration that inhibits visible growth
# Text: The antibacterial agents of this invention have useful activity against a variety of organisms. The in vitro activity of compounds of this invention can be assessed by standard testing procedures such as the determination of minimum inhibitory concentration (MIC) by agar dilution as described in “Approved Standard. Methods for Dilution Antimicrobial Susceptibility Tests for Bacteria That Grow Aerobically”, 3rd. ed., published 1993 by the National Committee for Clinical Laboratory Standards, Villanova, Pa., USA. The in vitro MICs of test compounds were determined by a standard agar dilution method. A stock drug solution of each analog was prepared in the preferred solvent, usually DMSO:H2O (1:3). Serial 2-fold dilutions of each sample are made using 1.0 ml aliquots of sterile distilled water. To each 1.0 ml aliquot of drug was added 9 ml of molten Mueller Hinton agar medium. The drug-supplemented agar was mixed, poured into 15×100 mm petri dishes, and allowed to solidify and dry prior to inoculation. Vials of each of the test organisms are maintained frozen in the vapor phase of a liquid nitrogen freezer. Test cultures are grown overnight at 35° C. on the medium appropriate for the organism. Colonies are harvested with a sterile swab, and cell suspensions are prepared in Trypticase Soy broth (TSB) to equal the turbidity of a 0.5 McFarland standard. A 1:20 dilution of each suspension was made in TSB. The plates containing the drug supplemented agar are inoculated with a 0.001 ml drop of the cell suspension using a Steers replicator, yielding approximately 10^4 to 10^5 cells per spot. The plates are incubated overnight at 35° C. Following incubation the Minimum Inhibitory Concentration (MIC μg/ml), the lowest concentration of drug that inhibits visible growth of the organism, was read and recorded.
row,SMILES,MIC [µg/mL]
1,COc1cc(OC)cc(C(=O)Nc2ccc(Br)cc2C(=O)O)c1,16
2,Cc1cccc(C(=O)Nc2ccc(Br)cc2C(=O)O)c1,64
3,CCOc1ccc(C(=O)Nc2ccc(Br)cc2C(=O)O)cc1OCC,> 128
4,O=C(Nc1ccc(Br)cc1C(=O)O)c1ccc(F)cc1,64
5,O=C(Nc1ccc(Br)cc1C(=O)O)c1cccc(C(F)(F)F)c1,8
6,CCN(CC)c1ccc(C(=O)Nc2ccc(Br)cc2C(=O)O)cc1,32
7,N#Cc1ccc(C(=O)Nc2ccc(Br)cc2C(=O)O)cc1,128
8,O=C(Nc1ccc(Br)cc1C(=O)O)c1ccc(-c2ccccc2)cc1,32
9,CN(C)c1ccc(C(=O)Nc2ccc(Br)cc2C(=O)O)cc1,32
10,CCSc1ccc(C(=O)Nc2ccc(Br)cc2C(=O)O)cc1,0.5
11,CCCCOc1ccc(C(=O)Nc2ccc(Br)cc2C(=O)O)cc1,8
12,O=C(Nc1ccc(Br)cc1C(=O)O)c1ccc(C(F)(F)F)cc1,32
13,CSc1ccc(C(=O)Nc2ccc(Br)cc2C(=O)O)cc1,2
14,C=Cc1ccc(C(=O)Nc2ccc(Br)cc2C(=O)O)cc1,> 128
15,COC(=O)c1ccc(C(=O)Nc2ccc(Br)cc2C(=O)O)cc1,32
16,O=C(O)c1cc(Br)ccc1NC(=O)c1ccc(F)c2ccccc12,32
17,COc1cc(C(=O)Nc2ccc(Br)cc2C(=O)O)ccc1C,> 128
18,O=C(Nc1ccc(Br)cc1C(=O)O)c1ccc2c(c1)OCO2,16
19,O=C(O)c1cc(Br)ccc1NC(=O)c1cccc2ccccc12,32
20,O=C(Nc1ccc(Br)cc1C(=O)O)c1cccc([N+](=O)[O-])c1,128
21,O=C(Nc1ccc(Br)cc1C(=O)O)c1ccc2ccccc2c1,2
22,CS(=O)(=O)c1ccc(C(=O)Nc2ccc(Br)cc2C(=O)O)cc1,64
23,O=Cc1ccc(C(=O)Nc2ccc(Br)cc2C(=O)O)cc1,> 128
24,COC(=O)c1cc(C(=O)Nc2ccc(Br)cc2C(=O)O)cc([N+](=O)[O-])c1,64

row,SMILES,MIC [µg/mL]
1,COc1cc(C(=O)Nc2ccc(Br)cc2C(=O)O)ccc1[N+](=O)[O-],32
2,O=C(Nc1ccc(Br)cc1C(=O)O)c1ccc(F)c(F)c1,32
3,CSc1ccc(Cl)c(C(=O)Nc2ccc(Br)cc2C(=O)O)c1,> 128
4,COc1cc(C(=O)Nc2ccc(Br)cc2C(=O)O)c([N+](=O)[O-])cc1OC,> 128
5,CC#CCOc1ccc(C(=O)Nc2ccc(Br)cc2C(=O)O)cc1,16
6,Cc1cc(C)n(COc2ccc(C(=O)Nc3ccc(Br)cc3C(=O)O)cc2)n1,64
7,CC(C)OCCOc1ccc(C(=O)Nc2ccc(Br)cc2C(=O)O)cc1,> 128
8,COC(=O)c1ccc(COc2ccc(C(=O)Nc3ccc(Br)cc3C(=O)O)cc2)cc1,> 128
9,O=C(Nc1ccc(Br)cc1C(=O)O)c1ccc(OCCSc2nc3ccccc3s2)cc1,64
10,O=C(Nc1ccc(Br)cc1C(=O)O)c1ccc(OCCc2ccccn2)cc1,128
11,O=C(Nc1ccc(Br)cc1C(=O)O)c1ccc(OCCc2cccc([N+](=O)[O-])c2)cc1,64
12,O=C(Nc1ccc(Br)cc1C(=O)O)c1ccc(OC2CCOCC2)cc1,128
13,CSc1ccc(C(=O)Nc2ccc(C#N)cc2C(=O)O)cc1,0.5
14,O=C(Nc1ccc(Br)cc1C(=O)O)c1ccc(OCCN2C(=O)c3ccccc3C2=O)cc1,64
15,COc1cc(OC)cc(C(=O)Nc2ccc(C#N)cc2C(=O)O)c1,8
16,CC(C)(C)CCOc1ccc(C(=O)Nc2ccc(Br)cc2C(=O)O)cc1,64
17,N#Cc1ccc(NC(=O)c2ccc(F)cc2)c(C(=O)O)c1,128
18,O=C(Nc1ccc(Br)cc1C(=O)O)c1ccc(OCCNc2ccccc2)cc1,64
19,N#Cc1ccc(NC(=O)c2cccc3ccccc23)c(C(=O)O)c1,16
20,CCOC(=O)C1CCC(Oc2ccc(C(=O)Nc3ccc(Br)cc3C(=O)O)cc2)CC1 (centres unmarked),> 128
21,COCC1CCCN1S(=O)(=O)c1cccc(C(=O)Nc2ccc(C#N)cc2C(=O)O)c1 (centres unmarked),64
22,CC(C)(C)c1ccc(-c2ccc(C(=O)Nc3ccc(C#N)cc3C(=O)O)cc2)cc1,32
23,CC1CC(S(=O)(=O)c2cccc(C(=O)Nc3ccc(C#N)cc3C(=O)O)c2)CC(C)O1 (centres unmarked),16
